Results from patent US5545625A, “Preventing conversion of citrulline to argininosuccinate to limit pathological nitric oxide overproduction” (The Medical College of Wisconsin Research Foundation, Inc., priority 1994, dated 1996).

What was measured:
nitric oxide synthase = assay: Nitric oxide synthase (NOS) activity of cytosol of rat aortic smooth muscle cells induced with LPS/interferon-gamma in presence of test agent (Example I); format: cell-based; details: mithramycin 0.001 to 10 μg/ml with LPS 30 μg/ml plus interferon-gamma 50 ng/ml, 24 hours; FIG. 1
Description: Aortic smooth muscle cells were cultured by explanting segments of the medial layer of aortae from adult male Fischer 344 rats. Aortae were removed aseptically and freed of adventitial and endothelial cells by scraping both the lumenal and abluminal surfaces. Medial fragments (1-2 mm) were allowed to attach to dry Primaria 25 cm^2 tissue culture flasks (Falcon; Oxnard, Calif.) which were kept moist with growth medium until cells emerged. Cultures were fed twice weekly with medium 199 containing 10% fetal bovine serum, 25 mM HEPES, 2 mM L-glutamine, 40 μg/ml endothelial cell growth supplement (Biomedical Technologies; Stoughton, Mass.) and 10 μg/ml gentamycin (GIBCO; Grand Island, N.Y.). When primary cultures became confluent, they were passaged by trypsinization and the explants were discarded. Cells in passage 10-15 were seeded at 20,000/well in 96-well plates. […]
Nitric oxide formation by smooth muscle cell cytosol was measured using a spectrophotometric kinetic microplate assay based on the increase in A405 accompanying the oxidation of Fe^2+ -myoglobin by nitric oxide. […] Assays were performed in triplicate with A405 recorded for each sample every 18 seconds for a period of 15 minutes. The rate of nitric oxide synthesis was calculated from the rate of increase in A405 by linear regression analysis. […]

[1] = system: human treated with interleukin-2; assay: Hypotension during interleukin-2 treatment for renal cell cancer (Examples VIII, XIV); format: in vivo; details: interleukin-2 1×10^6 units, 5 days; mithramycin 25 μg/kg intravenously as pretreatment and at 24 hour intervals
Description: A human is treated for renal cell cancer with interleukin-2 (1×10^6 units) for 5 days. By the fifth day, the patient's blood pressure falls to 80/55 mm Hg and the patient encounters nausea and extreme discomfort. Three weeks later, the patient returns for a second course of interleukin-2 treatment but is pretreated (before commencing interleukin-2 infusion) with mithramycin (25 μg/kg) and is treated at 24 hour intervals thereafter with 25 μg/kg of mithramycin. The mithramycin is administered intravenously in 50 ml saline over a 3 to 6 hour interval.
A human is treated for renal cell cancer with interleukin-2 (1×10^6) for 5 days. Simultaneously with commencing interleukin-2 infusion, L-thiocitrulline (10 mg/kg/day) is administered.

[2] = system: nitric oxide synthase mRNA; assay: RT-PCR of nitric oxide synthase mRNA in induced rat aortic smooth muscle cells (Example III); format: cell-based; details: LPS 30 μg/ml plus interferon-gamma 50 ng/ml with mithramycin, 6 hours; FIG. 3
Description: Rat aortic smooth muscle cells were grown as described in Example I and were treated with 30 μg/ml bacterial lipopolysaccharide in combination with 50 ng/ml interferon-gamma. […] RNA was extracted by a modified guanidinium isothiocyanate method (RNAzol; Cinna/Biotecz, Houston, Tex.). Reverse transcriptase-polymerase chain reaction was performed by standard methods using 1 μg of total RNA. This was followed by polymerase chain reaction amplification using synthetic gene-specific primers for rat argininosuccinate synthetase as described in Amaya, Y., et al, J. Biochem. (Tokyo) 103, 177-181 (1988), for argininosuccinate lyase as described in Surh, L. C., et al, Nucleic Acids Research, 16, 9352 (1988) and murine-inducible nitric oxide synthase as described in Lyons, C. R., et al, J. Biol. Chem. 267, 6370-6374 (1992). The primers are specifically described in Hattori, Y., et al, J. Biol. Chem. 269, 9405-9408 (1994). Polymerase chain reaction amplification was performed according to the following schedule: denaturation, annealing, and elongation at 95, 55 and 72° C. for 30 sec, 30 sec and 1 min, respectively, for 30 cycles. […] Polymerase chain reaction products were electrophoresed on a 1.5% agarose gel containing ethidium bromide and visualized by UV-induced fluorescence. […]

COC(C(=O)C(O)C(C)O)C1Cc2cc3cc(OC4CC(OC5CC(O)C(O)C(C)O5)C(O)C(C)O4)c(C)c(O)c3c(O)c2C(=O)C1OC1CC(OC2CC(OC3CC(C)(O)C(O)C(C)O3)C(O)C(C)O2)C(O)C(C)O1 (stereo not drawn) [mithramycin]
nitric oxide synthase activity (nitric oxide synthase): blocks argininosuccinate synthetase activity as well as nitric oxide synthase activity
development of hypotension [1]: hypotension does not develop
gene transcription of nitric oxide synthase (mRNA level) [2]: inhibits gene transcription of argininosuccinate synthetase and nitric oxide synthase
